Test results reported in US20050009889A1 (priority 2002, published 2005).
Marks after values point to notes of the source that are not given here.

What was measured:
Type in all cases: in vivo
[1] = tested on: Erysiphe graminis f. sp. tritici; assay: Test A: preventive control of wheat powdery mildew on wheat seedlings; settings: wheat seedlings sprayed to run-off, inoculated next day, rated after 7 days; concentration not given
Excerpt: (§1) General protocol for preparing test suspensions: Test compounds are first dissolved in acetone in an amount equal to 3% of the final volume and then suspended at the desired concentration (in ppm) in acetone and purified water (50/50 mix) containing 250 ppm of the surfactant Trem® 014 (polyhydric alcohol esters). The resulting test suspensions are then used in the following tests. Spraying a 200 ppm test suspension to the point of run-off on the test plants is the equivalent of a rate of 500 g/ha.
The test suspension was sprayed to the point of run-off on wheat seedlings. The following day the seedlings were inoculated with a spore dust of Erysiphe graminis f. sp. tritici, (the causal agent of wheat powdery mildew) and incubated in a growth chamber at 20° C. for 7 days, after which disease ratings were made.

[2] = tested on: Puccinia recondita; assay: Test B: preventive control of wheat leaf rust on wheat seedlings; settings: wheat seedlings sprayed to run-off, inoculated next day; concentration not given
Excerpt: as §1
(§2) The test suspension was sprayed to the point of run-off on wheat seedlings. The following day the seedlings were inoculated with a spore suspension of Puccinia recondita (the causal agent of wheat leaf rust) and incubated in a saturated atmosphere at 20° C. for 24 h, and then moved to a growth chamber at 20° C. for 6 days, after which disease ratings were made.

[3] = tested on: Pyricularia oryzae; settings: rice seedlings sprayed to run-off, inoculated next day; concentration not given
[4] = tested on: Phytophthora infestans; settings: tomato seedlings sprayed to run-off, inoculated next day; concentration not given
[5] = tested on: Plasmopara viticola; assay: Test E: preventive control of grape downy mildew on grape seedlings; settings: grape seedlings sprayed to run-off, inoculated next day; concentration not given
Excerpt: as §1
as §2, with “grape” for “wheat”, “Plasmopara viticola” for “Puccinia recondita”, “grape downy mildew)” for “wheat leaf rust)”, “h,” for “h, and then”, “days, and then incubated in a saturated atmosphere at 20° C. for 24 h,” for “days,”

[6] = tested on: Phytophthora infestans; settings: curative; 100 ppm on potato seedlings
[7] = tested on: Plasmopara viticola; assay: Test G: curative control of grape downy mildew on grape seedlings; settings: grape seedlings, curative; 100 ppm (footnote *)
Excerpt: as §1
Grape seedlings are inoculated with a spore suspension of Plasmopara viticola (the casual agent of grape downy mildew) and incubated in a saturated atmosphere at 20° C. for 24 h. The next day, test suspension is sprayed to the point of run-off and the treated plants are moved to a growth chamber at 20° C. for 6 days, and then incubated in a saturated atmosphere at 20° C. for 24 h, after which disease ratings are made.

[8] = tested on: grape downy mildew; assay: Curative utility, in addition to the Tests of Table A; settings: especially for grape downy mildew

Molecule | Test A disease control rating (100 = 100% disease control, 0 = no control) [1] [%] | Test B disease control rating (100 = 100% disease control, 0 = no control) [2] [%] | Test C disease control rating (100 = 100% disease control, 0 = no control) [3] [%] | Test D disease control rating (100 = 100% disease control, 0 = no control) [4] [%] | Test E disease control rating (100 = 100% disease control, 0 = no control) [5] [%] | Test F disease control rating (100 = 100% disease control, 0 = no control) [6] | Test G disease control rating (100 = 100% disease control, 0 = no control) [7] | curative utility [8]
2,4-Dichloro-N-[1-[3-chloro-5-(trifluoromethyl)-2-pyridinyl]ethyl]-3-pyridinecarboxamide [Compound 21] | 0 | 74 | 0 | 100 | 100 | 100# % | 100* % | significant curative utility
Cc1cnc(Cl)c(C(=O)NCc2ncc(C(F)(F)F)cc2Cl)c1Cl [Compound 20] | 0 | 54 | 0 | 100 | 100 | 24# % | 100* % | significant curative utility
